Results on 26 compounds are retold here after patent US20240368078A1, “ARYL HETEROCYCLIC COMPOUNDS AS Kv1.3 POTASSIUM SHAKER CHANNEL BLOCKERS” (D.E. SHAW RESEARCH, LLC, priority 2021, published 2024).

Bounds are passed on as bounds.

The target of one series is Kv1.3 potassium channel (Homo sapiens (Human), UniProt P22001). Nature of the series: Kv1.3 potassium channel blocker activity, automated whole-cell patch clamp in CHO-K1 cells stably expressing Kv1.3. It counts as cell-based. To be noted: Patchliner patch clamp. The method, then:
Example 21. Evaluation of Kv1.3 Potassium Channel Blocker Activities
This assay is used to evaluate the disclosed compounds' activities as Kv1.3 potassium channel blockers.
CHO-K1 cells stably expressing Kv1.3 were grown in DMEM containing 10% heat-inactivated FBS, 1 mM sodium pyruvate, 2 mM L-glutamine, and G418 (500 μg/ml). Cells were grown in culture flasks at 37° C. in a 5% C02-humidified incubator.
The cells were bathed in an extracellular solution containing 140 mM NaCl, 4 mM KCl, 2 mM CaCl2), 1 mM MgCl2, 5 mM glucose, 10 mM HEPES; pH adjusted to 7.4 with NaOH; 295-305 mOsm. The internal solution contained 50 mM KCl, 10 mM NaCl, 60 mM KF, 20 mM EGTA, 10 mM HEPES; pH adjusted to 7.2 with KOH; 285 mOsm. All compounds were dissolved in DMSO at 30 mM. Compound stock solutions were freshly diluted with external solution to concentrations of 30 nM, 100 nM, 300 nM, 1 μM, 3 μM, 10 μM, 30 μM and 100 μM. The highest content of DMSO (0.3%) was present in 100 μM.
The currents were evoked by applying 100 ms depolarizing pulses from −90 mV (holding potential) to +40 mV were applied with 0.1 Hz frequency. Control (compound-free) and compound pulse trains for each compound concentration applied contained 20 pulses. 10-second breaks were used between pulse trains (see Table A below).
Whole-cell current recordings and compound application were enabled by means of an automated patch clamp platform Patchliner (Nanion Technologies GmbH). EPC 10 patch clamp amplifier (HEKA Elektronik Dr. Schulze GmbH) along with Patchmaster software (HEKA Elektronik Dr. Schulze GmbH) was used for data acquisition. Data were sampled at 10 kHz without filtering. Passive leak currents were subtracted online using a P/4 procedure (HEKA Elektronik Dr. Schulze GmbH). Increasing compound concentrations were applied consecutively to the same cell without washouts in between. Total compound incubation time before the next pulse train was not longer than 10 seconds. Peak current inhibition was observed during compound equilibration.
(§1) AUC and peak values were obtained with Patchmaster (HEKA Elektronik Dr. Schulze GmbH). To determine IC50, the last single pulse in the pulse train corresponding to a given compound concentration was used. Obtained AUC and peak values in the presence of compound were normalized to control values in the absence of compound. Using Origin (OridinLab), IC50 was derived from data fit to Hill equation: Icompound/Icontrol=(100-A)/(1+([compound]/IC50)nH)+A, where IC50 value is the concentration at which current inhibition is half-maximal, [compound] is the applied compound concentration, A is the fraction of current that is not blocked and nH is the Hill coefficient.
On the technique in general: In patch-clamp work, channel activity is measured electrically.

In the next series the target is hERG channel (Homo sapiens (Human), UniProt Q12809). The series can be described thus: hERG electrophysiology, automated whole-cell patch clamp in CHO-K1 cells stably expressing hERG. It counts as cell-based. Conditions: Patchliner patch clamp. The procedure:
Example 22. Evaluation of hERG Activities
This assay is used to evaluate the disclosed compounds's inhibition activities against the hERG channel.
This assay is used to evaluate the disclosed compounds' inhibition activities against the hERG channel.
CHO-K1 cells stably expressing hERG were grown in Ham's F-12 Medium with glutamine containing 10% heat-inactivated FBS, 1% penicillin/streptomycin, hygromycin (100 μg/ml) and G418 (100 μg/ml). Cells were grown in culture flasks at 37° C. in a 5% CO2— humidified incubator.
The cells were bathed in an extracellular solution containing 140 mM NaCl, 4 mM KCl, 2 mM CaCl2), 1 mM MgCl2, 5 mM Glucose, 10 mM HEPES; pH adjusted to 7.4 with NaOH; 295-305 mOsm. The internal solution contained 50 mM KCl, 10 mM NaCl, 60 mM KF, 20 mM EGTA, 10 mM HEPES; pH adjusted to 7.2 with KOH; 285 mOsm. All compounds were dissolved in DMSO at 30 mM. Compound stock solutions were freshly diluted with external solution to concentrations of 30 nM, 100 nM, 300 nM, 1 μM, 3 μM, 10 μM, 30 μM and 100 μM. The highest content of DMSO (0.3%) was present in 100 μM.
The voltage protocol (see Table B) was designed to simulate voltage changes during a cardiac action potential with a 300 ms depolarization to +20 mV (analogous to the plateau phase of the cardiac action potential), a repolarization for 300 ms to −50 mV (inducing a tail current) and a final step to the holding potential of −80 mV. The pulse frequency was 0.3 Hz. Control (compound-free) and compound pulse trains for each compound concentration applied contained 70 pulses.
Whole-cell current recordings and compound application were enabled by means of an automated patch clamp platform Patchliner (Nanion). EPC 10 patch clamp amplifier (HEKA) along with Patchmaster software (HEKA Elektronik Dr. Schulze GmbH) was used for data acquisition. Data were sampled at 10 kHz without filtering. Increasing compound concentrations were applied consecutively to the same cell without washouts in between.
as §1, with “PEAK” for “peak”, “IC50” for “IC50,”, “Icompound/Icontrol=(100−A)/(1+([compound]/IC50)nH)+A,” for “Icompound/Icontrol=(100-A)/(1+([compound]/IC50)nH)+A,”, “IC50” for “IC50 value”
In general terms: The hERG channel carries a current that helps repolarise heart muscle cells.

What is called IC50 is the concentration that inhibits the measured activity by half. A low value points to inhibition by little substance.

Kv1.3 potassium channel, sequence (P22001 whole entry): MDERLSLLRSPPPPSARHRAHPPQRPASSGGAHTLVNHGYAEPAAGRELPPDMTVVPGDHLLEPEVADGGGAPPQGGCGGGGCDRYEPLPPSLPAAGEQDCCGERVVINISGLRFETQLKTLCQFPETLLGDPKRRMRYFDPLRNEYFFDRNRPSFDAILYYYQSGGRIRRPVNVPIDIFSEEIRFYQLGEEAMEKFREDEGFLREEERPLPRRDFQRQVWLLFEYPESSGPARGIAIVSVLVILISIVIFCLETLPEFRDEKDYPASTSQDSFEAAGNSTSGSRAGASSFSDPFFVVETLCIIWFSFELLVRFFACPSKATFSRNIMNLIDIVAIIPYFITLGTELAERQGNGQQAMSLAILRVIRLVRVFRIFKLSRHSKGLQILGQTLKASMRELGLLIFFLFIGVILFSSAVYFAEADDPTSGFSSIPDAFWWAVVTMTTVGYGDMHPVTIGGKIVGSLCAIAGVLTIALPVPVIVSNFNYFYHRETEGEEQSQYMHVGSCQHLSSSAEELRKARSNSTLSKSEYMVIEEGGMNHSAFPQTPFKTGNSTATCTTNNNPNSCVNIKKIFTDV
hERG channel, sequence (Q12809 whole entry): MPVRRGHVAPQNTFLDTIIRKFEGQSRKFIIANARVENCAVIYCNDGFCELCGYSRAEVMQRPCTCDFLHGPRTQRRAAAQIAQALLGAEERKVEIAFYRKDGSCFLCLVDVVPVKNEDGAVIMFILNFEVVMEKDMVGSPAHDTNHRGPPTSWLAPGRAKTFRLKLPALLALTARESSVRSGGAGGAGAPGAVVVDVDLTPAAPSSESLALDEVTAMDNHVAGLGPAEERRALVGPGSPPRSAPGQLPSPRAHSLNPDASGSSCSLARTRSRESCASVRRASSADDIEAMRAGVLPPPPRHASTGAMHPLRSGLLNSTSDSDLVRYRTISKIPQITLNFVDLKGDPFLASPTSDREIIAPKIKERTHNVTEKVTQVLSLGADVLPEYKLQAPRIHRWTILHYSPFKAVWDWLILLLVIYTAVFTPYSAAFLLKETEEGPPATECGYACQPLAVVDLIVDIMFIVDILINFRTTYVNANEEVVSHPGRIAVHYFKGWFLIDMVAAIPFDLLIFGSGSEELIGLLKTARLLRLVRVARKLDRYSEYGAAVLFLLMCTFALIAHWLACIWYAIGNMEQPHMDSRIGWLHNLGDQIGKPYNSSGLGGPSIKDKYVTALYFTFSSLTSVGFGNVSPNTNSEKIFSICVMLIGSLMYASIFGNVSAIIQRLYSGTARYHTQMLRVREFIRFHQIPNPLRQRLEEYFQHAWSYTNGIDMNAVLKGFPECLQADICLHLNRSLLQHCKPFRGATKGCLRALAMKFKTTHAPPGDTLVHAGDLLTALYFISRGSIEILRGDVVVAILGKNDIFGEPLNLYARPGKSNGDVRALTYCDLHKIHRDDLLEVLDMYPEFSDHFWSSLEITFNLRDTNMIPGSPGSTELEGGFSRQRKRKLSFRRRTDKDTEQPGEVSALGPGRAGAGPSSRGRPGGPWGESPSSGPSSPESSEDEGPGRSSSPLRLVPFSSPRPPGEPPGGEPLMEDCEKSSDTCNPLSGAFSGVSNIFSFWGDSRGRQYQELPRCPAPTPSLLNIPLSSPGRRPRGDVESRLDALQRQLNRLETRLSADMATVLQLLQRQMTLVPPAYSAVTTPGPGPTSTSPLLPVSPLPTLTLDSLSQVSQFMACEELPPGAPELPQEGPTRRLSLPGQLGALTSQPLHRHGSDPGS

Consider `C[C@@H](C(N)=O)[C@H]1CN[C@@H](c2c(O)ccc(Cl)c2Cl)C1` (single isomer, unassigned) [Compound 44], for which the IC50 is less than 1000 nM against Kv1.3 potassium channel and more than 100 µM at hERG channel.

Consider `C[C@H](C(N)=O)[C@H]1CN[C@@H](c2c(O)ccc(Cl)c2Cl)C1` (single isomer, unassigned) [Compound 45], for which the IC50 at Kv1.3 potassium channel was less than 100 nM; against hERG channel, more than 100 µM.

On to `CC[C@@H](C(N)=O)[C@H]1CN[C@@H](c2c(O)ccc(Cl)c2Cl)C1` (single isomer, unassigned) [Compound 46], for which the IC50 at Kv1.3 potassium channel was less than 1000 nM; at hERG channel, more than 100 µM.

Regarding `CC[C@H](C(N)=O)[C@H]1CN[C@@H](c2c(O)ccc(Cl)c2Cl)C1` (single isomer, unassigned) [Compound 47], the IC50 on Kv1.3 potassium channel is less than 100 nM; at hERG channel it was 100 µM.

At Kv1.3 potassium channel, `CC[C@H](C(N)=O)[C@@H]1CN[C@@H](c2c(O)ccc(Cl)c2Cl)C1` (single isomer, unassigned) [Compound 72] returned an IC50 of less than 1000 nM.

`CC[C@@H](C(N)=O)[C@@H]1CN[C@@H](c2c(O)ccc(Cl)c2Cl)C1` (single isomer, unassigned) [Compound 73] displayed an IC50 against Kv1.3 potassium channel of less than 1000 nM.

As for `COC[C@H](C(N)=O)[C@H]1CN[C@@H](c2c(O)ccc(Cl)c2Cl)C1` (single isomer, unassigned) [Compound 74], the IC50 at Kv1.3 potassium channel is less than 1000 nM; against hERG channel, more than 100 µM.

As for `COC[C@@H](C(N)=O)[C@H]1CN[C@@H](c2c(O)ccc(Cl)c2Cl)C1` (single isomer, unassigned) [Compound 75], the IC50 on Kv1.3 potassium channel is less than 1000 nM; on hERG channel it was more than 100 µM.

Take `NC(=O)[C@@H](CO)[C@H]1CN[C@@H](c2c(O)ccc(Cl)c2Cl)C1` (single isomer, unassigned) [Compound 76]: the values for the IC50 against Kv1.3 potassium channel and at hERG channel were less than 1000 nM and more than 100 µM, respectively.

As for `NC(=O)C(CO)[C@H]1CN[C@@H](c2c(O)ccc(Cl)c2Cl)C1` (single isomer, unassigned) [Compound 77], the values for the IC50 against Kv1.3 potassium channel and on hERG channel were less than 100 nM and more than 100 µM, respectively.

At Kv1.3 potassium channel, `NC(=O)[C@H](C1CC1)[C@H]1CN[C@@H](c2c(O)ccc(Cl)c2Cl)C1` (single isomer, unassigned) [Compound 78] registered an IC50 of less than 100 nM.

`NC(=O)[C@@H](C1CC1)[C@H]1CN[C@@H](c2c(O)ccc(Cl)c2Cl)C1` (single isomer, unassigned) [Compound 79]: the IC50 against Kv1.3 potassium channel was less than 1000 nM.

Take `NC(=O)C[C@H]1CN[C@@H](c2c(O)ccc(Cl)c2Cl)C1` [Compound 31, 2-[(3S,5R)-5-(2,3-dichloro-6-hydroxyphenyl)pyrrolidin-3-yl]acetamide]: the IC50 against Kv1.3 potassium channel is less than 1000 nM; on hERG channel, more than 100 µM.

At Kv1.3 potassium channel, `NC(=O)C[C@@H]1CN[C@@H](c2c(O)ccc(Cl)c2Cl)C1` [Compound 32, 2-[(3R,5R)-5-(2,3-dichloro-6-hydroxyphenyl)pyrrolidin-3-yl]acetamide] returned an IC50 of less than 1000 nM.

Consider `O=C(CC1CN[C@@H](c2c(O)ccc(Cl)c2Cl)C1)N1CC(O)(CO)C1` (stereo partly drawn) [Compound 33, 2-((5R)-5-(2,3-dichloro-6-hydroxyphenyl)pyrrolidin-3-yl)-1-(3-hydroxy-3-(hydroxymethyl)azetidin-1-yl)ethan-1-one], for which the IC50 against Kv1.3 potassium channel was less than 100 nM; against hERG channel it was more than 100 µM.

Regarding `O=C(CC1CN[C@@H](c2c(O)ccc(Cl)c2Cl)C1)NCCO` (stereo partly drawn) [Compound 34, 2-((5R)-5-(2,3-dichloro-6-hydroxyphenyl)pyrrolidin-3-yl)-N-(2-hydroxyethyl)acetamide], the results for the IC50 against Kv1.3 potassium channel and on hERG channel were less than 100 nM and more than 100 µM, respectively.

As to `CN(CCO)C(=O)CC1CN[C@@H](c2c(O)ccc(Cl)c2Cl)C1` (stereo partly drawn) [Compound 35, 2-((5R)-5-(2,3-dichloro-6-hydroxyphenyl)pyrrolidin-3-yl)-N-(2-hydroxyethyl)-N-methylacetamide], the IC50 on Kv1.3 potassium channel is less than 100 nM; against hERG channel, more than 30 µM.

For `CNC(=O)CC1CN[C@@H](c2c(O)ccc(Cl)c2Cl)C1` (stereo partly drawn) [Compound 36, 2-((5R)-5-(2,3-dichloro-6-hydroxyphenyl)pyrrolidin-3-yl)-N-methylacetamide], the IC50 is less than 100 nM at Kv1.3 potassium channel and more than 30 µM on hERG channel.

As for `C[C@@]1(CC(N)=O)CN[C@@H](c2c(O)ccc(Cl)c2Cl)C1` [Compound 50, 2-[5R-(2,3-dichloro-6-hydroxyphenyl)-3-methylpyrrolidin-3-yl]acetamide], the half-maximal inhibitory concentration (IC50) at Kv1.3 potassium channel was less than 1000 nM.

Take `CC(C)(C(N)=O)[C@@H]1CN[C@@H](c2c(O)ccc(Cl)c2Cl)C1` [Compound 51, 2-[(3R,5R)-5-(2,3-dichloro-6-hydroxyphenyl)pyrrolidin-3-yl]-2-methylpropanamide]: the IC50 at Kv1.3 potassium channel is less than 1000 nM.

For the compound `O=C(C[C@H]1CN[C@@H](c2c(O)ccc(Cl)c2Cl)C1)N1CCC(O)CC1` [Compound 57, 2-((3S,5R)-5-(2,3-dichloro-6-hydroxyphenyl)pyrrolidin-3-yl)-1-(4-hydroxypiperidin-1-yl)ethan-1-one], the IC50 at Kv1.3 potassium channel was less than 1000 nM.

The compound `O=C(C[C@H]1CN[C@@H](c2c(O)ccc(Cl)c2Cl)C1)N1CCC[C@H](O)C1` [Compound 59, 2-((3S,5R)-5-(2,3-dichloro-6-hydroxyphenyl)pyrrolidin-3-yl)-1-((S)-3-hydroxypiperidin-1-yl)ethan-1-one] returned an IC50 at Kv1.3 potassium channel of less than 1000 nM.

Compound `O=C(C[C@H]1CN[C@@H](c2c(O)ccc(Cl)c2Cl)C1)N1CC(CO)C1` [Compound 60, 2-((3S,5R)-5-(2,3-dichloro-6-hydroxyphenyl)pyrrolidin-3-yl)-1-(3-(hydroxymethyl)azetidin-1-yl)ethan-1-one] returned an IC50 on Kv1.3 potassium channel of less than 1000 nM.

In the case of `C[C@@H](CO)NC(=O)C[C@H]1CN[C@@H](c2c(O)ccc(Cl)c2Cl)C1` [Compound 62, 2-((3S,5R)-5-(2,3-dichloro-6-hydroxyphenyl)pyrrolidin-3-yl)-N-((S)-1-hydroxypropan-2-yl)acetamide], the IC50 on Kv1.3 potassium channel was less than 1000 nM.

As for `CC1(CO)CN(C(=O)C[C@H]2CN[C@@H](c3c(O)ccc(Cl)c3Cl)C2)C1` [Compound 69, 2-((3S,5R)-5-(2,3-dichloro-6-hydroxyphenyl)pyrrolidin-3-yl)-1-(3-(hydroxymethyl)-3-methylazetidin-1-yl)ethan-1-one], on Kv1.3 potassium channel, the IC50 was less than 1000 nM.

With `O=C(C[C@H]1CN[C@@H](c2c(O)ccc(Cl)c2Cl)C1)N1CC(CO)(CO)C1` [Compound 70, 1-(3,3-bis(hydroxymethyl)azetidin-1-yl)-2-((3S,5R)-5-(2,3-dichloro-6-hydroxyphenyl)pyrrolidin-3-yl)ethan-1-one], on Kv1.3 potassium channel, the IC50 was less than 1000 nM.
